Measured values reported in patent publication US9532569B2 (INSTITUT NATIONAL DE LA RECHERCHE AGRONOMIQUE, priority 2012, dated 2017).

Key:
Orobanche cumana = test: Germinative activity on parasitic plants; type: in vivo; conditions: counted after 4 days
Description: (§1) In this example, the germinative activity of the compounds in accordance with the invention (IIa) and (IIIb) and of the comparative compound GR24 was evaluated on the parasitic plants: Orobanche cumana, Orobanche minor, Striga hermonthica, Phelipanche ramosa (pv T and pv C).
(§2) The test protocol used was the following.
(§3) Seeds of Orobanche cumana Wallr. were collected from broomrapes parasitizing sunflower (Helianthus annuus L.), at Longeville-sur-mer, France, in 2009; seeds of clover broomrape (Orobanche minor Sm.) from a parasite of red clover (Trifolium pratense L.) were obtained from Professor K. Yoneyama (Utsunomiya University, Japan).
(§4) The seeds are stored dry in the dark at 25° C.
(§5) The compounds to be studied were resuspended in acetone at 10 mmol·l^−1, then diluted with water to 1 mmol·l^−1 (water/acetone; v/v; 99/1). Dilutions of 1×10^−3 mol·l^−1 to 1×10^−15 mol·l^−1 were then prepared in a water/acetone mixture (v/v; 99/1). Seeds of parasitic plants were surface-sterilized according to the protocol described in the publication by Vieira Dos Santos et al. (2003), then resuspended in sterile water (10 g·l^−1) and distributed on a 96-well plate (in a proportion of 50 μl, i.e. approximately 100 seeds per well). After preconditioning (7 days, 21° C., in the dark, plate hermetically sealed, except for the seeds of S. hermonthica, which were preconditioned at 30° C.), the compounds to be studied were added and the volumes adjusted to 100 μl with water (water/acetone; v/v; 999/1).
(§6) In a plate, a range of concentrations from 10^−13 mol·l^−1 to 10^−6 mol·l^−1 was applied for GR24 and (IIa) and from 10^−12 to 10^−5 mol·l^−1 for (IIIb). Controls were carried out with a water/acetone mixture (v/v; 999/1) and without seeds. The plates were incubated so as to allow germination (21° C., in the dark or 30° C. for Striga hermonthica.). After 4 days, the seeds which had germinated were counted under a stereomicroscope (SZX10, Olympus). The seeds were considered to have germinated when the radicle was sticking out of the seed tegument. Each germination test was repeated at least 3 times. For each compound tested, dose-response curves (g=f(c), where g is the germination percentage and c the concentration (mol·l^−1)), and the EC50 (median effective concentration) were modeled on the basis of a 4-parameter logistic curve calculated with SigmaPlot® 10.0.
(§7) The percentages of maximum germination induced by the compounds tested for each parasitic plant were determined.

Orobanche minor = test: Germinative activity on parasitic plants; type: in vivo; conditions: counted after 4 days
Description: as §1, §2, §3, §4, §5, §6, §7

MRC5 cells = test: In vitro cytotoxicity study on MRC5 cells (MTS); type: cell-based, human
Description: The cytotoxicity of the compound (IIa) according to the invention, and that of GR24 and of GR5 as comparative compounds, was evaluated in vitro, at concentrations of 10^−4 M and 10^−5 M, on MRC5 cells, in DMSO, in the following way.
MRC5 cells (human lung (fibroblasts) were cultured in Dulbecco's modified Eagle medium (DMEM) supplemented with: 25 mM of glucose, 10% (v/v) of fetal calf serum, 100 IU of penicillin, 100 μg/ml of streptomycin and 1.5 μg/ml of fungizone, and kept under 5% of CO2 at 37° C.
96-well plates were seeded with 2100 MRC5 cells per well in 200 μl of medium. After 24 hours, each of the compounds dissolved in DMSO was added for 72 hours, at a final concentration of 10^−4 M or 10^−5 M in a fixed volume of DMSO. The controls received an equal volume of DMSO.
The viable cell number was measured at 490 nm with the MTS reagent (Promega), and, for each compound, the concentration causing 50% inhibition of cell growth, IC50, was calculated.

CC1=C(C)C(Sc2ccc(Cl)cc2)OC1=O (centres unmarked) [Compound (IIa), 5-((4-chlorophenyl)thio)-3,4-dimethylfuran-2(5H)-one]
Percentage of maximum germination induced (Orobanche cumana): no (no significant germination compared to the negative control (<2%)) | Percentage of maximum germination induced (Orobanche minor): no (no significant germination compared to the negative control (<2%)) | inhibition at 100 µM (MRC5 cells; Homo sapiens, MRC5, 10^−4M, 72 hours, ± standard error, read-out: Percentage inhibition of MRC5 cell growth): 11 ± 5% | inhibition at 10 µM (MRC5 cells; Homo sapiens, MRC5, 10^−5M, 72 hours, ± standard error, read-out: Percentage inhibition of MRC5 cell growth): 7 ± 4% | cytotoxicity compared with GR5 and GR24 (MRC5 cells; concentration of 10^−4 M): cytotoxicity which is much lower than that of the comparative compounds GR5 and GR24
